Patent US5922871A, “Terephthalamide derivatives” (Dongwha Pharmaceutical Ind. Co., Ltd., priority 1997, dated 1999)

Key:
[1] = biological target: T1, HBV polymerase reverse transcriptase (HBV-RT) (Hepatitis B virus genotype D subtype ayw, UniProt P03156); assay: inhibitory activity against HBV polymerase in vitro (reverse transcriptase activity); format: biochemical; conditions: read-out: Inhibitory effect of HBV-RT; for inhibition at 0.1 µg/mL: 0.1 μg/ml; for inhibition at 1 µg/mL: 1 μg/ml
T1 construct: made in house; host or cells: E. coli
Excerpt: Experiment 1: The inhibitory activity against HBV polymerase in vitro.
Recently, the inventors of the present invention have produced a recombinant HBV polymerase that is expressed from E.coli transformant, measured its enzyme activity and filed patent applications thereof [Korean Patent Application Nos. 94-3918, 96-33998 and 96-63255].
The inventions have established a method of measuring the reverse transcriptase activity of HBV polymerase in vitro. The fundamental principle is the same as the ELISA method, and after reacting the substrate with biotin- and DIG-modified nucleotide, a method of recognizing the polymerized substrate as anti-DIG antibody with peroxidase was used. […] and 20 μ of test compound were mixed and reacted at 14~30° C. for 18~24 hours. Then, the inhibitory effect of test compound against reverse trascriptase activity in the HBV polymerase was examined, compared with the results of control tests without the test compound.

[2] = biological target: T2, HIV reverse transcriptase (HIV-RT) (Human immunodeficiency virus type 1 group M subtype B, UniProt P04585); assay: in vitro inhibition test against HIV reverse transcriptase; format: biochemical, HIV (AIDS virus); conditions: read-out: Inhibitory effect of HIV-RT; for inhibition at 0.1 µg/mL: 0.1 μg/ml; for inhibition at 1 µg/mL: 1 μg/ml
T2 construct: purchased Boehringer Mannheim
Protocol: Experiment 3: The in vitro inhibition test against HIV reverse transcriptase
The inhibitory activity in vitro was measured using a non-radioactive reverse transcriptase assay Kit (Boehringer Mannheim).
At first, 20 μl(40 ng) HIV-RT was added to the wells coated with streptavidin and with the addition of 20 μl, reaction mixture containing template/primer hybrid poly(A)/oligo(dT)15 and DIG-(digoxigenin)-dUTP, biotin-dUTP and TTP, 20 μl test compound was added and reacted at 37° C. for 1 hour. The control without test compound was used for the comparison of related activity. Since DNA containing nucleotide labeled with digoxigenin and biotine was prepared by the action of HIV-RT, it was combined with streptavidin coated at the bottom of the wells. After the reaction was completed, remaining impurities were removed by washing each well with 20 μl buffer solution (pH 7.0) for 30 seconds 5 times and with the addition of 200 μl anti-DIG-POD antibody, the mixture was reacted at 37° C. for 1 hour. For the removal of remaining impurities again, the reacting solution was washed with a buffer solution and with the addition of 200μl ABTS™ each, a substrate of POD(peroxidase), the solution was reacted at room temperature for 30 minutes. The absorbance was read by ELISA reader at 405 nm for the assay of reverse transcriptase activity and its inhibition activity.

[3] = biological target: T3, RNase H of HBV polymerase (HBV-RNase H) (Hepatitis B virus ayw/France/Tiollais/1979, UniProt P03156); assay: inhibitory effects against RNase H activity of HBV polymerase; format: biochemical; conditions: read-out: Inhibitory effect of HBV-RNase H; for inhibition at 0.1 µg/mL: 0.1 μg/ml; for inhibition at 1 µg/mL: 1 μg/ml
T3 construct: amylose/maltose step implies MBP fusion
Protocol: Experiment 2: The inhibitory effects against RNase H activity of HBV polymerase.
1) Expression of the RNase H domain derived from human HBV polymerase
E.coli NM 522 was transformed by the expression vector pMRH respectively and the transformants were cultured in LB medium at 37° C., overnight. These growing cultures were diluted 1:100, inoculated into a glucose rich medium and incubated until OD600 reached 0.5. Then IPTG (isopropylthiogalactoside) was added into the medium of which the fine concentration was 0.5 mM. The above growing cultures were incubated again at 20° C. for 16 hours and the RNase H domain was expressed.
The above cultured broth was centrifuged for 10 minutes at 3,000 rpm and the cell pellet was washed with 10 ml of TNE column buffer (10 mN Tris-Cl, pH 8.0, 200 mM NaCl, 1 mM EDTA), and resuspended in 10 ml of TNE column buffer. The cells were freezed and thawed 4 times repeatedly, and then disrupted by sonication for 10 seconds 3 times. The crude extract prepared in the above process was centrifuged for 30 minutes at 13,000 rpm, 4° C. and the supernatant was separated. The above process was repeated 2 times and then the supernatant passed the amylose resin. The resin was washed by using column buffer with 50 times of resin volume, and the RNase H domain was eluted by using buffer containing 10 mM maltose.
In addition, the RNase H domain produced from the expression vector pMRH was purified by using histidine tag affinity column, because RNase H has a histidine tag at the C-terminus. The resin (Ni-NTA, QIAGEN) used in the histidine tag affinity column was activated by using sonication buffer (50 mM sodium phosphate, pH 8.0, 300 mM sodium chloride) and 4~5 ml of the activated resin was charged in the glass tube whose diameter was about 1 cm. The protein sample obtained from above description passed the resin at the 0.1 ml/ min flow rate and the column was washed by using washing buffer with the 100~200 times volume of protein sample (50 mM sodium phosphate, pH 6.0, 300 mM sodium chloride, 10% glycerol). The recombinant protein was eluted by washing the column with concentration gradient of 0.01~0.5 M imidazole.
As a result, the active RNase H domain was separated from the histidine tag affinity column at 30 mM concentration of imidazole. The purified RNase H domain was mixed with 50% glycerol for storage at -20° C. after the removal of imidazole from it and employed fol the screening of HBV inhibitors.
2) Preparation of the substrate of the RNase H enzyme
In order to identify the RNase H activity, RNA/DNA complex which can be used as a substrate of the RNase H enzyme was prepared by performing in vitro transcription with […].
3) Screening of active inhibitors against RNase H
The RNase H activity was measured by using recombinant RNase H enzyme and radiolabled RNA/DNA hybrid. In order to measure the RNase H activity, 1 μg of RNase H enzyme and test compound were mixed with buffer solution containing 40 mM Tris-Cl (pH 8.0), 4 mM magnesium chloride, 40 mM potassium chloride and 2 mM DTT. The mixture was pretreated on ice for 10 minutes. After pretreatment is completed, RNA/DNA hybrid was added to incubate at 37° C. for 3 hours. After the reaction was stopped, 7.5 M ammonium acetate in a volume of 1/2 and ethanol in a 3-fold volume were added. The above reaction mixture was incubated at -20° C. for more than 2 hours and centrifuged for 15 minutes at 4° C., 13,000 rpm. The supernatant was obtained and the radioactive signal of supernatant was measured by scintillation counter.
As a control, water was added instead of test compound and the inhibitory activity was calculated to compare with the control, when the radioactivity intensity on each test compound, was obtained.

T3 sequence (P03156 680-832): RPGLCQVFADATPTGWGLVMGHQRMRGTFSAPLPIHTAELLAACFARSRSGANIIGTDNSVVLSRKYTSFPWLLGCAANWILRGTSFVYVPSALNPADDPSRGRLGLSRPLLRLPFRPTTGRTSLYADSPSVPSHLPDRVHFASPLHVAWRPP
T1 sequence (P03156 whole entry): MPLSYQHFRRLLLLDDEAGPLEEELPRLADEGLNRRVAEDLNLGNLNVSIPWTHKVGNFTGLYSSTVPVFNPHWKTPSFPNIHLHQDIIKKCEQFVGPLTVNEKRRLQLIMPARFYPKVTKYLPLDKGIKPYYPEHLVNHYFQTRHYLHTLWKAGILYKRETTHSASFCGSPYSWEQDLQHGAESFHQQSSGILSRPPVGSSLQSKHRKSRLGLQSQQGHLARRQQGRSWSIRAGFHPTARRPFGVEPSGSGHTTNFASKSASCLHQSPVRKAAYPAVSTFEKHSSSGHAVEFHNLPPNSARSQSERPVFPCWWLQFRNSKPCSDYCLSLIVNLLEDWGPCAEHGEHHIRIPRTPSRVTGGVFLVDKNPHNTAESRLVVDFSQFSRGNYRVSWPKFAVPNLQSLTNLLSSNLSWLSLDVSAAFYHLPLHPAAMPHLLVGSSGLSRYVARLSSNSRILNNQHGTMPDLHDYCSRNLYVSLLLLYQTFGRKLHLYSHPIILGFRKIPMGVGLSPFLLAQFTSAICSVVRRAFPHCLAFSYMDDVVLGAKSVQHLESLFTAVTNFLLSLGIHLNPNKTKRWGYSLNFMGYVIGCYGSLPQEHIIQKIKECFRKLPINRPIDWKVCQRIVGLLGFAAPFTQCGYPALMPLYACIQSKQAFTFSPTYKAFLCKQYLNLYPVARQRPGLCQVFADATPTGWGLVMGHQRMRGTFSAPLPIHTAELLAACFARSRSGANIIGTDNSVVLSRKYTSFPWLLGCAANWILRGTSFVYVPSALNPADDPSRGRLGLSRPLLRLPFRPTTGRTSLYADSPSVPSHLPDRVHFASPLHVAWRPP

Row | Structure (SMILES) | inhibition at 0.1 µg/mL [1] [%] | inhibition at 1 µg/mL [1] [%] | inhibition at 0.1 µg/mL [2] [%] | inhibition at 1 µg/mL [2] [%] | inhibition at 0.1 µg/mL [3] [%] | inhibition at 1 µg/mL [3] [%]
1 | CC(C)Nc1cccnc1N1CCN(C(=O)c2ccc(C(=O)NCCO)cc2)CC1 [Compound No. 1, 1-[N-(2-Hydroxyethyl)carbamoyl]-4-[1-[3-(isopropylamino)-2-pyridyl]piperazin-4-yl-carbonyl]benzene] | 53 | 55 | 41 | 62 | 11 | 80
2 | CCN(CCO)C(=O)c1ccc(C(=O)N2CCN(c3ncccc3NC(C)C)CC2)cc1 [Compound No. 6, 1-[N-Ethyl-N-(2-hydroxyethyl)carbamoyl]-4-[1-[3-(isopropylamino)-2-pyridyl]piperazin-4-yl-carbonyl]benzene] | 30 | 51 |  |  | 55 | 83
3 | CC(C)Nc1cccnc1N1CCN(C(=O)c2ccc(C(=O)N(CCO)CCO)cc2)CC1 [Compound No. 12, 1-[N,N-Bis(2-hydroxyethyl)carbamoyl]-4-[1-[3-(isopropylamino)-2-pyridyl]piperazin-4-yl-carbonyl]benzene] | 52 | 63 | 46 | 52 | 86 | 91
4 | CC(C)Nc1cccnc1N1CCN(C(=O)c2ccc(C(=O)N3CCNCC3)cc2)CC1 [Compound No. 19, 1-[4-[1-[3-(Isopropylamino)-2-pyridyl]piperazin-4-yl-carbonyl]benzoyl]piperazine] |  |  | 43 | 52 | 38 | 53
5 | CC(C)Nc1cccnc1N1CCN(C(=O)c2ccc(C(=O)N3CCN(CCO)CC3)cc2)CC1 [Compound No. 26, 4-(2-Hydroxyethyl)-1-[4-[1-[3-(isopropylamino)-2-pyridyl]piperazin-4-yl-carbonyl]benzoyl]piperazine] | 32 | 54 | 45 | 55 | 66 | 95
6 | CC(C)Nc1cccnc1N1CCN(C(=O)c2ccc(C(=O)N3CCN(CCCO)CC3)cc2)CC1 [Compound No. 27, 4-(3-Hydroxypropyl)-1-[4-[1-[3-(isopropylam-ino)-2-pyridyl]piperazin-4-yl-carbonyl]benzoyl]piperazine] |  |  | 40 | 68 | 73 | 81
7 | CC(C)Nc1cccnc1N1CCN(C(=O)c2ccc(C(=O)N3CCN(CC(O)CO)CC3)cc2)CC1 (stereo not shown) [Compound No. 31, 4-(2,3-Dihydroxypropyl)-1-[4-[1-[3-(isopropylamino)-2-pyridyl]piperazin-4-yl-carbonyl]benzoyl]piperazine] | 30 | 52 |  |  | 80 | 85
8 | CC(C)Nc1cccnc1N1CCN(C(=O)c2ccc(C(=O)NC(CO)CO)cc2)CC1 [Compound No. 52, 1-[N-[Bis(hydroxymethyl)methyl]carbamoyl]-4-[1-[3-(isopropylamino)-2-pyridyl]piperazin-4-yl-carbonyl]benzene] | 52 | 63 | 57 | 61 | 41 | 58
9 | CC(C)Nc1cccnc1N1CCN(C(=O)c2ccc(C(=O)N(C)CC3OCCO3)cc2)CC1 [Compound No. 71, 1-[N-[(1,3-Dioxolan-2-yl)methyl]-N-methylcarbamoyl]-4-[1-[3-(isopropylamino)-2-pyridyl]piperazin-4-yl-carbonyl]benzene] | 35 | 51 | 68 | 70 | 56 | 62
